Data set [1] can be described thus: Plasma aspirin/salicylic acid level in APCmin/+ mice with or without antibiotics (UHPLC-Q-TOF/MS). It counts as in vivo. As to conditions: for plasma level of aspirin: antibiotics-treated APCmin/+ mice relative to mice with intact microbiota. How it is done: (§1) The levels of aspirin from plasma, gut luminal contents and culture medium was determined by ultra-high-performance liquid chromatography-quadrupole time-of-flight mass spectrometry (UHPLC-Q-TOF/MS). The detection sample was mixed in 5 μL 4-C1-phenylalanine (0.39 mg/mL, internal standard). Aspirin and salicylic acid were extracted twice by 400 μL cold methanol. Supernatants were dried under nitrogen stream and detected by UHPLC (1290 Infinity LC, Agilent, Santa Clara, Calif.) and MS (6550 Q-TOF/MS, Agilent, CA).
(§2) The primary metabolite of aspirin, salicylic acid, in culture medium was examined by Trinder's method^26. Equal number of fecal bacteria (estimated by optical density (OD) 600) from APC^min/+ mice with and without antibiotic treatment were inoculated into the brain heart infusion (BHI) medium (Thermo Fisher Scientific) containing aspirin (10 mM). After 2-hour co-incubation at 37° C., the level of salicylic acid in medium was measured by Trinder's method^26. Briefly, the supernatant of medium was mixed with a solution containing 40 g ferric nitrate, 40 g mercuric chloride and 120 mL 1N HCL in 1 L ddH2O at 1:5 ratio. Salicylic acid was quantified by absorbance value at 540 nm. The plasma and luminal content levels of salicylic acid were evaluated by UHPLC-Q-TOF/MS.
To determine the reason for the enhanced CRC inhibitory effect of aspirin in microbiota-depleted mice, the plasma level of aspirin was evaluated in mice with or without intact microbiota. Antibiotics cocktail was administered to APC^min/+ mice for five days followed by oral administration of aspirin (10 mg/kg) (FIG. 4A), and subsequent UHPLC-Q-TOF/MS analysis (FIG. 4B). […] To confirm this observation, the level of salicylic acid, the primary metabolite of aspirin, was evaluated in the plasma. The plasma level of salicylic acid increased at 1 h post aspirin administration in microbiota-depleted mice compared to mice with intact microbiota (FIG. 9). These findings indicate that the gut microbiota is associated with the reduction of aspirin bioavailability.

The conditions of data set [2]: reference 24, cited from earlier work.
Data set [3] can be described thus: Plasma and luminal aspirin/salicylic acid level in L. sphaericus-monocolonized germ-free mice. Format: in vivo. As to conditions: for plasma level of aspirin: L. sphaericus-monocolonized germ-free mice compared with control germ-free mice. The procedure:
as §1, §2
In order to determine whether L. sphaericus can degrade aspirin and impacts its bioavailability in vivo, germ-free mice were gavaged with L. sphaericus (1×10^8 CFU) once/day for three days, followed by oral administration of aspirin (10 mg/kg) (FIG. 6C). […] Taken together, these findings from in vitro and in vivo experiments indicate that L. sphaericus causes aspirin degradation in the gut, thereby reducing aspirin bioavailability.

The subject of the next data set is PGE2. In words: Plasma PGE2 by ELISA. It counts as in vivo, mice. The procedure: The plasma levels of PGE2 were measured using Multispecies Competitive ELISA Kit (Thermo Fisher Scientific). Briefly, 500 μL ice-cold methanol was added to 150 μL of plasma sample with 28 μM indomethacin and mixed vigorously. After acidification by 2M HCl to pH 3.5, the aqueous layer was extracted with 500 μL chloroform and centrifuged at 2000 g for 20 min^25. The […] organic phase was discarded, and the remaining aqueous phase was evaporated to dryness under nitrogen, before measurement by the kit.

For data set [4], the system named is colorectal tumorigenesis. The data set can be described thus: APCmin/+ spontaneous colorectal cancer mouse model. As to conditions: aspirin 400 mg/L drinking water; microbiota-depleted APCmin/+ mice. Format: in vivo. How it is done:
Drinking water was supplemented with antibiotics cocktail (0.2 g/L of ampicillin, neomycin and metronidazole and 0.1 g/L of vancomycin) for two weeks, every other two weeks, till the end of experiment, to deplete the gut microbiota. Aspirin (Byer, Leverkusen, Germany), freshly prepared (400 mg/L) in drinking water twice a week, was continuously given to mice through the entire experiment. […] At day 80 for AOM/DSS model and day 84 for APC^min/+ model, mice were harvested. The intestines were longitudinally opened along the mesenteric margin and flushed with ice-cold phosphate-buffered saline (PBS). Solid neoplastic lesions were carefully counted for tumor number and measured for tumor size (average diameter, (major diameter+minor diameter)/2) and tumor load (sum of average diameters of all tumors). The intestinal tissues were fixed in 10% neutral buffered formalin and embedded in paraffin. Sections (4 μm) were stained with hematoxylin and eosin for histological examination by a pathologist (A/Professor Anthony W H Chan) who was blind to the experimental design. The remaining tissues were snap-frozen in liquid nitrogen, and stored at −80° C. until use. All procedures adhered to the guidelines approved by the Animal Experimentation Ethics Committee of the Chinese University of Hong Kong.

The subject of data set [5] is colorectal tumorigenesis. In words: AOM/DSS-treated germ-free and conventionalized germ-free Kunming mice. Format: in vivo. How it is done: Germ-free wild-type Kunming mice (10 weeks old) in male gender were treated with AOM and DSS to induce intestinal neoplasia. The treatment regimens of AOM, DSS and aspirin were the same as described for conventional mice. In a separate experiment, to determine the direct effects of microbiota on chemoprevention, germ-free mice were conventionalized after their cages were placed out of germ-free environment at 10 weeks old prior to treatment. The remaining procedures performed were the same as described for conventional mice. Germ-free mice were bred at the Department of Laboratory Animal Science, The Third Military Medical University, Chongqing, China. The germ-free animal experiments were approved by the Animal Experimentation Ethics Committee of The Third Military Medical University.

Setting [6] is: 0.5 h post oral aspirin 10 mg/kg.
Setting [7] is: AOM/DSS-treated conventionalized germ-free mice.
[8] abbreviates: AOM/DSS-treated germ-free mice, relative to untreated germ-free control mice.

With `CC(=O)Oc1ccccc1C(=O)O` [aspirin, acetylsalicylic acid], the “plasma level of aspirin” value in data set [1] (setting [6]) is on record as “significantly increased”; in data set [1] (1 h post oral aspirin 10 mg/kg) it was “significantly increased”; in data set [3] (setting [6]), “significantly reduced”; in data set [3] (1 h post oral aspirin 10 mg/kg), “significantly reduced”. The “plasma level of salicylic acid (primary metabolite of aspirin)” value in data set [1] (1 h post oral aspirin 10 mg/kg, microbiota-depleted mice compared to mice with intact microbiota) is “increased”. In addition, the “level in circulation, effect of gut microbiota” value in data set [2] (after oral administration) is on record as “reducing its level in circulation”. Further, the “difference in blood levels of aspirin in rats with and without microbial depletion” value in data set [2] (intravenous administration) is “abolished by intravenous administration”. For the same compound, the “antithrombotic activity, effect of gut microbiota” value in data set [2] (oral administration) is given as “reduced the antithrombotic activity”. For the same compound, the “level of salicylic acid in the colon luminal content” value in data set [3] (3 h post oral aspirin 10 mg/kg, L. sphaericus-monocolonized mice compared to control germ-free mice) is “significantly reduced”. For the same compound, in data set [3] (3 h post oral aspirin 10 mg/kg, L. sphaericus-monocolonized mice vs control germ-free mice), the “plasma level of salicylic acid” value was “significantly lowered”. Besides, the “plasma PGE2 level” value in the data set with PGE2 (AOM/DSS mice with depleted microbiota) is “significantly decreased”; in the data set on PGE2 (AOM/DSS-treated germ-free mice), “reductions”; with PGE2 (APCmin/+ mice with depleted microbiota) it was “significantly decreased”; with PGE2 (conventional mice with intact microbiota, compared to control mice), “no differences”; in the data set on PGE2 (conventionalized germ-free mice, compared to control mice), “no differences”. Also, the colorectal tumor load entry with colorectal tumorigenesis [4] is “significantly decreased”; in the data set on colorectal tumorigenesis [5] (setting [8]) it was “significantly reduced”. The colorectal tumor number entry in the data set on colorectal tumorigenesis [4] is reported as “significantly decreased”; with colorectal tumorigenesis [5] (setting [8]), “significantly reduced”. Further, the “suppressive effect on tumorigenesis (tumor load)” value in the data set on colorectal tumorigenesis [5] (setting [7]) was “impaired by conventionalization”. The “suppressive effect on tumorigenesis (tumor number)” value with colorectal tumorigenesis [5] (setting [7]) is given as “impaired by conventionalization”.

Source of the values: US12275995B2, “Lysinibacillus sphaericus and aspirin chemoprevention of colorectal cancer” (priority 2019, dated 2025).
